The results in this text go back to US20120309796A1, “BENZOCYCLOHEPTENE ACETIC ACIDS” (priority 2011, published 2012).

The target in test [1] is T1, human CRTH2 (Homo sapiens, UniProt Q9Y5Y4).
T1 sequence (Q9Y5Y4 1-395): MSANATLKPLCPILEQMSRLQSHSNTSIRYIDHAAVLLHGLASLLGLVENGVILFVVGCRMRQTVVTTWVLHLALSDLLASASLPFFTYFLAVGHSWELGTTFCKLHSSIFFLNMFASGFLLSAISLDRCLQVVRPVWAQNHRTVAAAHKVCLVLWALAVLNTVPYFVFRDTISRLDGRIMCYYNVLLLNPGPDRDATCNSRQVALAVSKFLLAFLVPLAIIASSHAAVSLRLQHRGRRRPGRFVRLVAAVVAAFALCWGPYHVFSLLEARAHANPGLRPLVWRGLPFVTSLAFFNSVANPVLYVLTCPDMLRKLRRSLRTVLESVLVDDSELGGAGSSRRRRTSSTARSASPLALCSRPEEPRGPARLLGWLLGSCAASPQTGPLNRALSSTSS
Nature of the test: Human CRTH2 Receptor Binding Assay (whole cell, [3H]ramatroban competition). Set-up: two mammalian expression vectors that harbored human CRTH2 and G-alpha16 cDNAs; expressed in transfected cells. As to conditions: CHO-K1 cells expressing human CRTH2 and G-alpha16; 20 nM [3H]ramatroban; 1 hour, room temperature. From the text:
A whole cell receptor binding assay using [^3H]ramatroban as the competing radioactive ligand was employed to evaluate the compound binding activity to human CRTH2. The radioactive ligand [^3H]ramatroban was synthesized according to Sugimoto et. al. (Eur. J. Pharmacol. 2005, 524, 30-37) to a specific activity of 42 Ci/mmol
A cell line stably expressing human CRTH2 was established by transfecting CHO-K1 cells with two mammalian expression vectors that harbored human CRTH2 and G-alpha16 cDNAs, respectively, using FuGene® 6 transfection reagent (from Roche). Stable clones expressing CRTH2 were selected by staining each clone with BM16 (BD Pharmingen™ from BD Biosciences, a division of Becton, Dickinson and Company), which is a rat monoclonal antibody to human CRTH2. The cells were maintained as monolayer cultures in Ham's F-12 medium containing 10% fetal bovine serum, 100 units/mL penicillin, 100 μg/mL streptomycin, 2 mM glutamine, 0.5 mg/mL G418 (geneticin) for CRTH2, and 0.2 mg/mL hygromycin-B (for G-alpha 16). For whole cell receptor binding assay, the monolayer cells were rinsed once with PBS (phosphate buffered saline), dissociated using ethylenediaminetetraacetate (Versene™ EDTA from Lonza Inc.), and suspended in PBS containing 10 mM MgCl2 and 0.06% BSA (bovine serum albumin) at 1.5×10^6 cells/mL.
The binding reactions (0.2 mL) were performed in 96-well plates at room temperature in PBS containing 1.5×10^5 cells, 10 mM MgCl2, 0.06% BSA, 20 nM [^3H]ramatroban, and test compound at various concentrations. After 1 hour of binding reactions, the cells were harvested on GF™/B filter microplates (microtiter plates with embedded glass fiber from PerkinElmer, Inc.) and washed 5 times with PBS using a Filtermate™ Harvester (a cell harvester that harvests and washes cells from microplates from PerkinElmer, Inc.). The radioactivities bound to the cells were determined using a microplate scintillation counter (TopCount® NXT, from PerkinElmer, Inc.) after adding 50 μL of Microscint™ 20 scintillation fluid (from PerkinElmer, Inc.) to each well of the filter plates. The radioactivity from non-specific binding was determined by replacing compound with 10 μM of 15(R)-15-methyl PGD2 (from Cayman Chemical Company) in the reaction mixtures. The radioactivity bound to the cells in the absence of compound (total binding) was determined by replacing compound with 0.25% of DMSO (dimethyl sulfoxide) in the reaction mixture. Specific binding data were obtained by subtracting the radioactivity of non-specific binding from each binding data.
The IC50 value is defined as the concentration of the tested compound that is required for 50% inhibition of total specific binding. In order to calculate the IC50 value, the percent inhibition data were determined for 7 concentrations for each compound. The percent inhibition for a compound at each concentration was calculated according to the following formula, [1-(specific binding in the presence of compound)/(total specific binding)]×100. The IC50 value was then obtained by fitting the percent inhibition data to a sigmoidal dose-response (4 parameter logistic) model in the XLfit® software Excel add-in program [from ID Business Solutions Ltd., model 205, where F(x)=(A+(B−A)/(1+((C/x)̂D)))].

Test [2] concerns the target T1, human CRTH2. Nature of the test: Calcium Flux Assay Using Fluorometric Imaging Plate Reader (FLIPR). The class given is cell-based. Details: expressed in transfected cells; host or cells: CHO-K1 previously transfected with G-alpha 16. The conditions noted are these: CHO-K1 cells with G-alpha 16 and human CRTH2; inhibition of DK-PGD2 ligand-induced Ca2+ flux. As to the method:
CHO-K1 cells previously transfected with G-alpha 16 were subsequently transfected with the human CRTH2 receptor and the neomycin resistance gene. Following selection in 800 μg/mL G418 (geneticin), individual clones were assayed for their receptor expression based on staining with an anti human CRTH2 IgG, followed by assaying for their response to 13,14-dihydro-15-keto Prostaglandin D2 (DK-PDG2) (ligand) in the Ca^2+ Flux assay. Positive clones were then cloned by limiting dilution cloning. The transfected cells were cultured in Ham's F-12 medium supplemented with 10% fetal bovine serum, 2 mM glutamine, 100 U/mL penicillin/100 μg/mL streptomycin, 200 μg/mL hygromycin B, and 800 μg/mL G418 (geneticin). Cells were harvested with trypsin-EDTA (trypsin-ethylenediaminetetraacetic acid) and counted using ViaCount® reagent (from Guava Technologies, Inc. which contains two DNA-binding dyes that enable the reagent user to distinguish between viable and non-viable cells). The cell suspension volume was adjusted to 2.5×10^5 cells/mL with complete growth media. Aliquots of 50 μL were dispensed into BD Falcon™ 384 well black/clear microplates (from BD Biosciences, a division of Becton, Dickinson and Company) and the microplates were placed in a 37° C. CO2 incubator overnight. The following day, the microplates were used in the assay.
Loading Buffer containing dye (from the FLIPR® Calcium 3 Assay Kit from Molecular Devices, a division of MDS Analytical Technologies and MDS Inc.) was prepared by dissolving the contents of one bottle into 200 mL Hank's Balanced Salt Solution containing 20 mM HEPES (4-(2-hydroxyethyl)-1-piperazineethanesulfonic acid) and 2.5 mM probenecid. Growth media was removed from the cell plates and 25 μL of Hank's Balanced Salt Solution (HBSS) containing 20 mM HEPES, 0.05% BSA and 2.5 mM probenecid was added to each well followed by 25 μL of diluted dye using a Multidrop dispenser. The plates were then incubated for 1 hour at 37° C.
During the incubation, test compound plates were prepared by adding 90 μL of HBSS/20 mM HEPES/0.005% BSA buffer to the 2 μL of serial diluted compounds. To prepare serial diluted compounds, 20 mM stocks of compounds were dissolved in 100% DMSO. The compound dilution plate was set up as follows: well #1 received 5 μL of compound plus 10 μL of DMSO. Wells 2-10 received 10 μL of DMSO. 5 μL was mixed and transferred from well #1 into well #2. 1:3 serial dilutions were continued out 10 steps. 2 μl of diluted compound was transferred into duplicate wells of a 384 well “assay plate” and then 90 μL of buffer was added.
After incubation, both the cell and “assay plate” plates were brought to the fluorometric imaging plate reader (FLIPR®) and 20 μL of the diluted compounds were transferred to the cell plates by the FLIPR®. Plates were then incubated for 1 hour at room temperature. After the 1 hour incubation, plates were returned to the FLIPR® and 20 μL of 4.5× concentrated ligand was added to the cell plates. During the assay, fluorescence readings were taken simultaneously from all 384 wells of the cell plate every 1.5 seconds. Five readings were taken to establish a stable baseline, then 20 μL of sample was rapidly (30 μL/sec) and simultaneously added to each well of the cell plate. The fluorescence was continuously monitored before, during and after sample addition for a total elapsed time of 100 seconds. Responses (increase in peak fluorescence) in each well following agonist addition were determined. The initial fluorescence reading from each well, prior to ligand stimulation, was used as a zero baseline value for the data from that well. The responses were expressed as % inhibition of the buffer control. […]

In general, IC50 refers to the concentration needed to halve the response being measured. On to `O=C(O)COc1cccc2c1CCCCC2NS(=O)(=O)c1ccc(-c2cccc(C(F)(F)F)c2)cn1` (stereo not drawn) [Example 33, {5-[5-(3-Trifluoromethyl-phenyl)-pyridine-2-sulfonylamino]-6,7,8,9-tetrahydro-5H-benzocyclohepten-1-yloxy}-acetic acid], for which the IC50 on human CRTH2 [1] was found to be 178 nM; at human CRTH2 [2] it was 29.2 nM.
For `O=C(O)COc1cccc2c1CCCCC2NS(=O)(=O)c1ccc(-c2ccccc2)cc1` (stereo not drawn) [Example 4, [5-(Biphenyl-4-sulfonylamino)-6,7,8,9-tetrahydro-5H-benzocyclohepten-1-yloxy]-acetic acid], in that order: 33.6 nM and 255 nM.
In the same order, the values of `O=C(O)COc1cccc2c1CCCCC2NS(=O)(=O)c1cc(Cl)cc(Cl)c1` (stereo not drawn) [Example 2, [5-(3,5-Dichloro-benzenesulfonylamino)-6,7,8,9-tetrahydro-5H-benzocyclohepten-1-yloxy]-acetic acid] are 58.4 nM and 340 nM.
For `CN(C1CCCCc2c(OCC(=O)O)cccc21)S(=O)(=O)c1cc(Br)cc(C(F)(F)F)c1` (stereo not drawn) [Example 9, {5-[(3-Bromo-5-trifluoromethyl-benzenesulfonyl)-methyl-amino]-6,7,8,9-tetrahydro-5H-benzocyclohepten-1-yloxy}-acetic acid], in that order: 57.4 nM and 6.1 nM.
Regarding `CS(=O)(=O)c1cccc(S(=O)(=O)NC2CCCCc3c(OCC(=O)O)cccc32)c1` (stereo not drawn) [Example 5, [5-(3-Methanesulfonyl-benzenesulfonylamino)-6,7,8,9-tetrahydro-5H-benzocyclohepten-1-yloxy]-acetic acid], the figures for the IC50 at human CRTH2 [1] and on human CRTH2 [2] were 952 nM and 581 nM, respectively.
Consider `CS(=O)(=O)c1cccc(-c2ccc(S(=O)(=O)NC3CCCCc4c(OCC(=O)O)cccc43)cc2)c1` (stereo not drawn) [Example 29, [5-(3′-Methanesulfonyl-biphenyl-4-sulfonylamino)-6,7,8,9-tetrahydro-5H-benzocyclohepten-1-yloxy]-acetic acid], for which the IC50 is 9.1 nM at human CRTH2 [1] and 60.6 nM at human CRTH2 [2].
For `O=C(O)COc1cccc2c1CCCCC2NS(=O)(=O)c1cc(Br)cc(C(F)(F)F)c1` (stereo not drawn) [Example 8, [5-(3-Bromo-5-trifluoromethyl-benzenesulfonylamino)-6,7,8,9-tetrahydro-5H-benzocyclohepten-1-yloxy]-acetic acid], in that order: 47 nM and 36.6 nM.
In the same order, the values of `O=C(O)COc1cccc2c1CCCCC2NS(=O)(=O)c1ccc(-c2ccc(O)cc2)cc1` (stereo not drawn) [Example 23, [5-(4′-Hydroxy-biphenyl-4-sulfonylamino)-6,7,8,9-tetrahydro-5H-benzocyclohepten-1-yloxy]-acetic acid] are 103 nM and 42.1 nM.
For `Cc1cc(-c2ccc(S(=O)(=O)N(C)C3CCCCc4c(OCC(=O)O)cccc43)nc2)cc(C(C)(C)C)c1` (stereo not drawn) [Example 36, (5-{[5-(3-tert-Butyl-5-methyl-phenyl)-pyridine-2-sulfonyl]-methyl-amino}-6,7,8,9-tetrahydro-5H-benzocyclohepten-1-yloxy)-acetic acid], in that order: 164 nM and 784 nM.
